Our source for the IC50 values is patent publication US8039493B2, “Biaryl sulfonamide derivatives” (Hoffmann-La Roche Inc., priority 2008, dated 2011).

One assay addresses T1, human LXR beta (Homo sapiens, UniProt P55055).
T1 construct: human LXR beta (aa 155 to 460); made in house; host or cells: E. coli BL21 (pLysS)
T1 sequence (P55055 155-460): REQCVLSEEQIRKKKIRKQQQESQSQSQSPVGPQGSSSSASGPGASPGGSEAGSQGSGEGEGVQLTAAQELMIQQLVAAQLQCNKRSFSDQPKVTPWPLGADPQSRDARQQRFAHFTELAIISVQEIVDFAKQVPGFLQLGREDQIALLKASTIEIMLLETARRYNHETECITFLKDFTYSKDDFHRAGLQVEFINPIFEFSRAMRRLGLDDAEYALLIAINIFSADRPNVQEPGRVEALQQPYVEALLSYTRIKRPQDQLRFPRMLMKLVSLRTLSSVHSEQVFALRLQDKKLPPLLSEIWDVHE
As to the kind of experiment: Radioligand binding assay (scintillation proximity), LXR beta-LBD. The note with it: LXR beta-LBD on SPA beads, read-out: LXRbeta Binding IC50. As to the method: (§1) The following tests were carried out in order to determine the activity of the compounds of the present invention. […] Mammalian expression vectors were constructed to express full-length human LXR alpha and LXR beta. […] To accomplish this, the portions of the sequences encoding the LBDs were amplified from the full-length clones by PCR and then subcloned into the plasmid vectors.
(§2) Induction, expression, and purification of LBD proteins were performed in E. coli strain BL21 (pLysS) cells by standard methods (Ref: Current Protocols in Molecular Biology, Wiley Press, edited by Ausubel et al).
(§3) Radioligand Binding Assay
(§4) LXR alpha and LXR beta receptor binding were assayed in buffer consisting of 50 mM HEPES, pH 7.4, 10 mM NaCl, 5 mM MgCl2. For each 96-well reaction, 500 ng of LXRα-LBD or 700 ng of LXR beta-LBD proteins were bound to 80 μg or 40 μg SPA beads respectively, in a final volume of 50 μl by shaking. The resulting slurry was incubated for 1 h at RT and centrifuged for 2 min at 1300×g. The supernatant containing unbound protein was removed, and the semi-dry pellet containing the receptor-coated beads was re-suspended in 50 μl of buffer. Radioligand (eg. 100,000 dpm of (N-(2,2,2-trifluoroethyl)-N-[4-(2,2,2-trifluoro-1-hydroxy-1-trifluoromethylethyl)-phenyl]-benzenesulfonamide)) was added, and the reaction incubated at RT for 1 h in the presence of test compounds, and then scintillation proximity counting was performed. All binding assays were performed in 96-well plates and the amount of bound ligand was measured on a Packard TopCount using OptiPlates (Packard). Dose response curves were measured within a range of concentration from 10^−10 M to 10^−4 M.

The target in the next assay is T2, human LXR alpha (Homo sapiens, UniProt Q13133).
T2 construct: human LXR alpha (aa 164 to 447); made in house; host or cells: E. coli BL21 (pLysS)
T2 sequence (Q13133 164-447): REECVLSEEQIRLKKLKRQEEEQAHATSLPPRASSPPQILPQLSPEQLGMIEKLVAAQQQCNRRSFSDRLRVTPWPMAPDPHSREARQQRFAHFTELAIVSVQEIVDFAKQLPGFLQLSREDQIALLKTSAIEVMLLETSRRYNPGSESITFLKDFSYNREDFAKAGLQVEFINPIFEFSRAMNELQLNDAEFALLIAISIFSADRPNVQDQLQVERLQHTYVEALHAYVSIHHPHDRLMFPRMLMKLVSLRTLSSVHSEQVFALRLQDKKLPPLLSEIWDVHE
As to the kind of experiment: Radioligand binding assay (scintillation proximity), LXRα-LBD. The note with it: LXRα-LBD on SPA beads, read-out: LXRalpha Binding IC50. As to the method: as §1, §2, §3, §4
In general terms: In a scintillation proximity assay essentially only radioactivity close to the scintillant gives light.

Structures are written as SMILES.

Usually IC50 stands for the midpoint of a concentration-inhibition curve. In the case of `CC(C)CN(Cc1ccc(-c2cccc(S(C)(=O)=O)c2)o1)S(=O)(=O)c1ccccc1Cl` [Example 13, 2-Chloro-N-isobutyl-N-[5-(3-methanesulfonyl-phenyl)-furan-2-ylmethyl]-benzenesulfonamide], the IC50 on human LXR beta was 40.5 nM; at human LXR alpha, 3490 nM.
The corresponding values for `CC(C)CN(Cc1cc(-c2cccc(S(C)(=O)=O)c2)cs1)S(=O)(=O)c1ccccc1Cl` [Example 14, 2-Chloro-N-isobutyl-N-[4-(3-methanesulfonyl-phenyl)-thiophen-2-ylmethyl]-benzenesulfonamide] are 2.2 nM and 68 nM.
Consider `CC(C)CN(Cc1ccc(-c2cccc(S(C)(=O)=O)c2)s1)S(C)(=O)=O` [Example 15, N-Isobutyl-N-[5-(3-methanesulfonyl-phenyl)-thiophen-2-ylmethyl]-methanesulfonamide], for which the IC50 at human LXR beta was 7060 nM; on human LXR alpha, 48700 nM.
The corresponding values for `CCS(=O)(=O)N(Cc1ccc(-c2cccc(S(C)(=O)=O)c2)s1)CC(C)C` [Example 16, Ethanesulfonic acid isobutyl-[5-(3-methanesulfonyl-phenyl)-thiophen-2-ylmethyl]-amide] are 2860 nM and 25000 nM.
Consider `CC(C)CN(Cc1ccc(-c2cccc(S(C)(=O)=O)c2)s1)S(=O)(=O)c1ccccc1F` [Example 17, 2-Fluoro-N-isobutyl-N-[5-(3-methanesulfonyl-phenyl)-thiophen-2-ylmethyl]-benzenesulfonamide], for which the values for the IC50 on human LXR beta and at human LXR alpha were 28 nM and 2210 nM, respectively.
As for `CC(C)CN(Cc1ccc(-c2cccc(S(C)(=O)=O)c2)s1)S(=O)(=O)c1c(Cl)cccc1Cl` [Example 18, 2,6-Dichloro-N-isobutyl-N-[5-(3-methanesulfonyl-phenyl)-thiophen-2-ylmethyl]-benzenesulfonamide], the IC50 on human LXR beta is 82 nM; on human LXR alpha, 1440 nM.
The corresponding values for `COC(=O)c1ccccc1S(=O)(=O)N(Cc1ccc(-c2cccc(S(C)(=O)=O)c2)s1)CC(C)C` [Example 19, 2-{Isobutyl-[5-(3-methanesulfonyl-phenyl)-thiophen-2-ylmethyl]-sulfamoyl}-benzoic acid methyl ester] are 59 nM and 2630 nM.
Turning to `CC(C)CN(Cc1ccc(-c2cccc(S(C)(=O)=O)c2)s1)S(=O)(=O)C(F)(F)F` [Example 20, Trifluoro-N-isobutyl-N-[5-(3-methanesulfonyl-phenyl)-thiophen-2-ylmethyl]-methanesulfonamide], the results for the IC50 at human LXR beta and on human LXR alpha were 270 nM and 3750 nM, respectively.
In the case of `CC(C)CN(Cc1ccc(-c2cccc(S(C)(=O)=O)c2)s1)S(=O)(=O)c1cccs1` [Example 21, Thiophene-2-sulfonic acid isobutyl-[5-(3-methanesulfonyl-phenyl)-thiophen-2-ylmethyl]-amide], the IC50 is 140 nM on human LXR beta and 605 nM at human LXR alpha.
Take `CC(C)CN(Cc1ccc(-c2cccc(S(C)(=O)=O)c2)s1)S(=O)(=O)c1cccc(Cl)c1F` [Example 22, 3-Chloro-2-fluoro-N-isobutyl-N-[5-(3-methanesulfonyl-phenyl)-thiophen-2-ylmethyl]-benzenesulfonamide]: the IC50 at human LXR beta came out at 22.5 nM; at human LXR alpha it was 1380 nM.
For `COc1ccc(Cl)cc1S(=O)(=O)N(Cc1ccc(-c2cccc(S(C)(=O)=O)c2)s1)CC(C)C` [Example 23, 5-Chloro-N-isobutyl-N-[5-(3-methanesulfonyl-phenyl)-thiophen-2-ylmethyl]-2-methoxy-benzenesulfonamide], in that order: 19 nM and 1520 nM.
The corresponding values for `Cc1ccc(F)cc1S(=O)(=O)N(Cc1ccc(-c2cccc(S(C)(=O)=O)c2)s1)CC(C)C` [Example 24, 5-Fluoro-N-isobutyl-N-[5-(3-methanesulfonyl-phenyl)-thiophen-2-ylmethyl]-2-methyl-benzenesulfonamide] are 28.5 nM and 165 nM.
For `CCCCS(=O)(=O)N(Cc1ccc(-c2cccc(S(C)(=O)=O)c2)s1)CC(C)C` [Example 25, Butane-1-sulfonic acid isobutyl-[5-(3-methanesulfonyl-phenyl)-thiophen-2-ylmethyl]-amide], in that order: 80 nM and 2750 nM.
Turning to `CC(C)CN(Cc1ccc(-c2cccc(S(C)(=O)=O)c2)s1)S(=O)(=O)c1ccccc1C#N` [Example 26, 2-Cyano-N-isobutyl-N-[5-(3-methanesulfonyl-phenyl)-thiophen-2-ylmethyl]-benzenesulfonamide], the IC50 at human LXR beta is 98 nM; at human LXR alpha, 15900 nM.
For `CN(Cc1ccc(-c2cccc(S(C)(=O)=O)c2)s1)S(=O)(=O)c1ccccc1C(F)(F)F` [Example 27, N-[5-(3-Methanesulfonyl-phenyl)-thiophen-2-ylmethyl]-N-methyl-2-trifluoromethyl-benzenesulfonamide], in that order: 2610 nM and 29200 nM.
The corresponding values for `CCN(Cc1ccc(-c2cccc(S(C)(=O)=O)c2)s1)S(=O)(=O)c1ccccc1C(F)(F)F` [Example 28, N-Ethyl-N-[5-(3-methanesulfonyl-phenyl)-thiophen-2-ylmethyl]-2-trifluoromethyl-benzenesulfonamide] are 440 nM and 19900 nM.
For `CCCN(Cc1ccc(-c2cccc(S(C)(=O)=O)c2)s1)S(=O)(=O)c1ccccc1C(F)(F)F` [Example 29, N-[5-(3-Methanesulfonyl-phenyl)-thiophen-2-ylmethyl]-N-propyl-2-trifluoromethyl-benzenesulfonamide], in that order: 104 nM and 2460 nM.
Turning to `CC(C)N(Cc1ccc(-c2cccc(S(C)(=O)=O)c2)s1)S(=O)(=O)c1ccccc1C(F)(F)F` [Example 30, N-Isopropyl-N-[5-(3-methanesulfonyl-phenyl)-thiophen-2-ylmethyl]-2-trifluoromethyl-benzenesulfonamide], the IC50 worked out at 470 nM on human LXR beta and 7860 nM at human LXR alpha.
`CC(C)CN(Cc1ccc(-c2cccc(S(C)(=O)=O)c2)s1)S(=O)(=O)c1ccccc1C(F)(F)F` [Example 31, N-Isobutyl-N-[5-(3-methanesulfonyl-phenyl)-thiophen-2-ylmethyl]-2-trifluoromethyl-benzenesulfonamide]: the IC50 on human LXR beta amounted to 85 nM; at human LXR alpha it was 1460 nM.
On to `CS(=O)(=O)c1cccc(-c2ccc(CN(CC3CC3)S(=O)(=O)c3ccccc3C(F)(F)F)s2)c1` [Example 32, N-Cyclopropylmethyl-N-[5-(3-methanesulfonyl-phenyl)-thiophen-2-ylmethyl]-2-trifluoromethyl-benzenesulfonamide], for which the IC50 was 106 nM on human LXR beta and 845 nM at human LXR alpha.
The corresponding values for `CS(=O)(=O)c1cccc(-c2ccc(CN(Cc3ccccc3F)S(=O)(=O)c3ccccc3C(F)(F)F)s2)c1` [Example 33, N-(2-Fluoro-benzyl)-N-[5-(3-methanesulfonyl-phenyl)-thiophen-2-ylmethyl]-2-trifluoromethyl-benzenesulfonamide] are 6.6 nM and 13.5 nM.
For `Cc1noc(C)c1CN(Cc1ccc(-c2cccc(S(C)(=O)=O)c2)s1)S(=O)(=O)c1ccccc1C(F)(F)F` [Example 34, N-(3,5-Dimethyl-isoxazol-4-ylmethyl)-N-[5-(3-methanesulfonyl-phenyl)-thiophen-2-ylmethyl]-2-trifluoromethyl-benzenesulfonamide], in that order: 83 nM and 60.5 nM.
For `COCCN(Cc1ccc(-c2cccc(S(C)(=O)=O)c2)s1)S(=O)(=O)c1ccccc1C(F)(F)F` [Example 35, N-[5-(3-Methanesulfonyl-phenyl)-thiophen-2-ylmethyl]-N-(2-methoxy-ethyl)-2-trifluoromethyl-benzenesulfonamide], in that order: 116 nM and 975 nM.
